The numbers were not newly measured in patent US20260207481A1, “INTRANASAL […] OF C[…] TREAT CENTRAL NERVOUS SYSTEM DISORDERS” (Nose to Brain Therapeutics LLC, priority 2019, published 2026), which cites them from elsewhere.

The conditions of data set [1]: oral mucosal sprays compared to IV administration (FIG. 2).
Another data set addresses CB2 (Homo sapiens, UniProt P34972).

Sequence of CB2 (P34972 whole entry): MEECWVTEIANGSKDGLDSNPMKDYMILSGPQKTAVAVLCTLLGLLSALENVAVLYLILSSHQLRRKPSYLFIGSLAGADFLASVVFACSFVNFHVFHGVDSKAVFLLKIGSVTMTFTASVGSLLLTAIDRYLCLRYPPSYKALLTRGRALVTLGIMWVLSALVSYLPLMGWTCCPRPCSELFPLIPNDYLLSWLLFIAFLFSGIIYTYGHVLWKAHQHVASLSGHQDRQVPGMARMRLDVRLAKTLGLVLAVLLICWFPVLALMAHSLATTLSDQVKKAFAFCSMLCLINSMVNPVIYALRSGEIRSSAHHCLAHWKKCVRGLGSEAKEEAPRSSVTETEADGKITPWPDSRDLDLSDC

Turning to `C=C(C)[C@@H]1CCC(C)=C[C@H]1c1c(O)cc(CCCCC)cc1O` [CBD, Cannabidiol], in data set [1], the Cmax result was “poor”. The “binding affinity to CB2” value on CB2 is “minimal”.
